This passage reports SNAP-25 levels results from patent US12083105B2, “Compositions and methods for treating adult-onset neuronal ceroid lipofuscinosis (Kufs disease)” (CORNELL UNIVERSITY, priority 2020, dated 2024).

This assay deals with SNAP-25. In words: Total SNAP-25 levels in ANCL iNs (quantitative immunoblotting). The settings on record: 72 h, compared to vehicle only control, FIG. 7B. The assay is classed as cell-based, human. As to the method:
ANCL patient-derived fibroblasts were treated with 200 μM of L1 or Dfx, or vehicle (0.1% DMSO=Control) for 72 h, before measuring the UV-Vis absorbance spectra of immunoprecipitated CSPα eluted by trypsinization (solid lines). Spectra were re-read after 10 min of 0.1 N HCl treatment (dashed lines). The experiments shown in FIGS. 7B-7I, were conducted using ANCL fibroblasts converted to iNs using BAM+ND1 technique. […] Quantitative immunoblotting was used to measure levels of oligomerized and fully palmitoylated CSPα as well as total SNAP-25. Oligo=oligomers; Palm=palmitoylated. […] The interaction of CSPα with SNAP-25 in ANCL iNs was measured by immunoprecipitating SNAP-25 followed by quantitative immunoblotting of co-immunoprecipitated CSPα (normalized to SNAP-25 IP). Note that mainly CSPα monomers and not oligomers were detected bound to SNAP-25. Control=control sham IP without IgG. […] Turnover of SNAP-25 was determined by cycloheximide chase, while maintaining the iron-chelators or vehicle in the medium. […] In the experiments shown in FIGS. 7E-7G, ANCL iNs treated with L1, Dfx, or vehicle for 56 d and analyzed. […] The levels of lipofuscin were determined by ELISA. In the experiments shown in FIGS. 7H-7I 56 day old untreated ANCL iNs were treated with L1, Dfx, or vehicle, and analyzed. […]
For orientation: A western blot detects proteins with antibodies after separation by electrophoresis.

Turning to `CC(=O)N(O)CCCCCNC(=O)CCC(=O)N(O)CCCCCNC(=O)CCC(=O)N(O)CCCCCN` [Dfx, N′-[5-(Acetyl-hydroxy-amino)pentyl]-N-[5-[3-(5-aminopentyl-hydroxy-carbamoyl)propanoylamino]pentyl]-N-hydroxy-butane diamide], the SNAP-25 levels result is “augmented”. In the case of `Cc1c(O)c(=O)ccn1C` [L1, 3-hydroxy-1,2-dimethyl-4(1H)-pyridone], the SNAP-25 levels entry was “augmented”.
